In US20200000969A1, “HYALURONIC ACID COMPOSITIONS INCLUDING MEPIVACAINE” (LABORATOIRES VIVACY, priority 2013, published 2020):

Columns and labels:
[1] = cited from earlier work
[2] = Release kinetics of local anesthetic from hyaluronic acid gel by dialysis, UV-visible spectrophotometry; assay type: physicochemical; conditions: HA 3×10^6 Da, X=0.12, 20 mg/g; for mass percentage of local anesthetic in the hyaluronic acid gel: initial 3 mg/g, 37° C., physiological saline
Method: The release kinetics were, however, studied at 37° C. in physiological saline medium. Monitoring by UV-visible spectrophotometry is performed to assay the local anesthetic present in the gel.

Compound: Cc1cccc(C)c1NC(=O)C1CCCCN1C (stereo not drawn) [Mepivacaine, mepivacaine]
- pKa [1]: 7.7
- release kinetics from the hyaluronic acid gel (FIG. 1), lidocaine versus mepivacaine ([2]; 3 mg/g, dialysis at 37° C. in physiological saline): comparable
- mass percentage of local anesthetic in the hyaluronic acid gel ([2]; dialysis time 0 h): 0.290 mass %
- mass percentage of local anesthetic in the hyaluronic acid gel ([2]; dialysis time 1.5 h): 0.133 mass %
- mass percentage of local anesthetic in the hyaluronic acid gel ([2]; dialysis time 5 h): 0.100 mass %
- mass percentage of local anesthetic in the hyaluronic acid gel ([2]; dialysis time 7 h): 0.098 mass %
- mass percentage of local anesthetic in the hyaluronic acid gel ([2]; dialysis time 23 h): 0.086 mass %
- mass percentage of local anesthetic in the hyaluronic acid gel ([2]; dialysis time 48 h): 0.077 mass %
- mass percentage of local anesthetic in the hyaluronic acid gel ([2]; dialysis time 72 h): 0.075 mass %
